Assay results reported in US10752588B2 (The Broad Institute, Inc., priority 2014, dated 2020).

What was measured:
human D2R/β-arrestin [1] = biological target: T1, human D2R/β-arrestin (Homo sapiens (Human), UniProt P14416); test: cell-based; settings: β-arrestin Antagonist, CHO-K1 cell line expressing human D2R/β-arrestin; quinpirole used as agonist
Procedure: (§1) The detection reagents are then added, and the read-out is detected.
(§2) Cells were prepared for assays by growing cultures for up to 2 weeks (from about 6-20 passages). A vial of frozen cells was thawed in a water bath held at 37° C. The cells were then transferred into a 50 ml tube with 10 ml growth media. The vial was rinsed with growth media and the contents transferred to the 50 ml tube. The 50 ml tube was centrifuged at 1200 rpm for 5 minutes at room temperature. […] When the cells reached about 90% confluence (approximately 3 days between passages), the cells were passaged and used for either the agonist or antagonist assays as described below.
The cells were prepared for β-arrestin assays as described above. The assays were performed using a PathHunter® β-Arrestin Detecting Kit (DiscoveRX). The cells were grown on 225 mm dishes, then washed once with 1×PBS (Cellgro), followed by digestion with 2.5 ml 1× Detachment reagent (DRX 92-0009) for approximately 2 minutes.

human D2R/β-arrestin [2] = biological target: T1, human D2R/β-arrestin; test: Gi/cAMP agonist assay (Lance Ultra cAMP, Forskolin); type: cell-based; settings: CHO-K1 cell line expressing human D2R/β-arrestin
Procedure, shortened: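 Cells were plated and incubated before compounds were pin-transferred and incubated for 10 min at 37 °C. Forskolin was then added to stimulate cAMP. cAMP was detected by Lance Ultra TR-FRET using Eu-cAMP tracer and ULight-anti-cAMP antibody.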

human D2R/β-arrestin [3] = biological target: T1, human D2R/β-arrestin; test: β-Arrestin agonist assay (PathHunter); type: cell-based; settings: CHO-K1 cell line expressing human D2R/β-arrestin
Procedure, shortened: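 After compound incubation, detection reagent (Buffer:Emerald II:Galactor-Star, 19:5:1) added and luminescence or fluorescence read.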

human D2R/β-arrestin [4] = biological target: T1, human D2R/β-arrestin; test: cell-based; settings: cAMP Antagonist, CHO-K1 cell line expressing human D2R/β-arrestin; quinpirole used as agonist
Procedure: as §1, §2
The cells were prepared for Gi/cAMP assays as described above. The assays were performed using a PE Lance Ultra cAMP kit (TRF0263). The cells were grown on 225 mm dishes, then washed once with 1×PBS (Cellgro) before digestion with 2.5 ml 1× Detachment reagent (DRX 92-0009) for about 2 minutes. PBS (20 ml) was then added to the plate, and the cells were transferred to a 50 ml centrifuge tube, and centrifuged at room temperature using BD Dynac III, at 1200 rpm for 5 minutes. […] The plates were then incubated at room temperature for about 30 minutes before addition of Eu-cAMP tracer solution (100, PerkinElmer) and then ULight-anti-cAMP solution (100) to each well.

T1 sequence (P14416 whole entry): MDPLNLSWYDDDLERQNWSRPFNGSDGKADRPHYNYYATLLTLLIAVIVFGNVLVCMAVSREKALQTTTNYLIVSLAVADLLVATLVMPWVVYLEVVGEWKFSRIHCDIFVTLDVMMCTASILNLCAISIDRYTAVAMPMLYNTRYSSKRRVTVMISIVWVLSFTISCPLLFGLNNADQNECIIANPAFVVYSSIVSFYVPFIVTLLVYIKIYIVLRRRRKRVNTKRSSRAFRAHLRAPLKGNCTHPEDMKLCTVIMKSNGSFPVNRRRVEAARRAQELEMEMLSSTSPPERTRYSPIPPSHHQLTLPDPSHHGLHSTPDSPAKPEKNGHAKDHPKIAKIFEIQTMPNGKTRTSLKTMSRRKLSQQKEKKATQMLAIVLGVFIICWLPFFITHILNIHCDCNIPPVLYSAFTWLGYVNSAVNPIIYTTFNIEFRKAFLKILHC

| Structure (SMILES) | IC50 (human D2R/β-arrestin [1]) [µM] | EC50 (human D2R/β-arrestin [2]) [µM] | EC50 (human D2R/β-arrestin [3]) [µM] | IC50 (human D2R/β-arrestin [4]) [µM] |
| --- | --- | --- | --- | --- |
| O=C(NC(c1ccc(F)cc1)c1ccccn1)C1CCN(CCOc2ccc3ncsc3c2)CC1 (stereo not shown) [Compound 55, 1-(2-(benzo[d]thiazol-6-yloxy)ethyl)-N-((4-fluorophenyl)(pyridin-2-yl)methyl)piperidine-4-carboxamide] | 1 to 10 | > 30 | > 30 | 1 to 10 |
| O=C(NC(c1ccc(F)cc1)c1ccccn1)C1CCN(CCOc2cc(F)ccc2F)CC1 (stereo not shown) [Compound 57, 1-(2-(2,5-difluorophenoxy)ethyl)-N-((4-fluorophenyl)(pyridin-2-yl)methyl) piperidine-4-carboxamide] | 0.1 to 1 | 0.1 to 1 | > 30 | > 30 |
| CC(C)(COc1ccccc1)N1CCC(C(=O)NC(c2ccc(F)cc2)c2ccccn2)CC1 (stereo not shown) [Compound 58] | 10 to 30 | > 30 | > 30 | 10 to 30 |
| O=C(NC(c1ccc(F)cc1)c1ccccn1)C1CCN(Cc2cc3ccccc3o2)CC1 (stereo not shown) [Compound 59] | > 30 | > 30 | > 30 | 10 to 30 |
| O=C(NC(c1ccc(F)cc1)c1ccccn1)C1CCN(Cc2nc3ccccc3o2)CC1 (stereo not shown) [Compound 60, 1-(benzo[d]oxazol-2-ylmethyl)-N-((4-fluorophenyl)(pyridin-2-yl)methyl)piperidine-4-carboxamide] | > 30 | > 30 | > 30 | > 30 |
| O=C(NC(c1ccc(F)cc1)c1ccccn1)C1CCN(CC2Cc3ccccc3C2)CC1 (stereo not shown) [Compound 61, 1-((2,3-dihydro-1H-inden-2-yl)methyl)-N-((4-fluorophenyl)(pyridin-2-yl)methyl)piperidine-4-carboxamide] | 10 to 30 | > 30 | > 30 | 10 to 30 |
| CN1CCC(C(=O)NC(c2ccc(Cl)cc2)c2ccccn2)CC1 (stereo not shown) [Compound 64, N-((4-chlorophenyl)(pyridin-2-yl)methyl)-1-methylpiperidine-4-carboxamide] | 10 to 30 | > 30 | > 30 | 1 to 10 |
| COCCN1CCC(C(=O)NC(c2ccc(Cl)cc2)c2ccccn2)CC1 (stereo not shown) [Compound 65, N-((4-chlorophenyl)(pyridin-2-yl)methyl)-1-(2-methoxyethyl)piperidine-4-carboxamide] | 10 to 30 | > 30 | > 30 | 1 to 10 |
| CC1(C(=O)NC(c2ccc(F)cc2)c2ccccn2)CCN(CCOc2ccccc2)CC1 (stereo not shown) [Compound 69, N-((4-fluorophenyl)(pyridin-2-yl)methyl)-4-methyl-1-(2-phenoxyethyl)piperidine-4-carboxamide] | 0.1 to 1 | < 0.1 | 0.1 to 1 | > 30 |
| CC1(C(=O)NC(c2ccc(F)cc2)c2ccccn2)CCN(CCOc2ccccc2C(F)(F)F)CC1 (stereo not shown) [Compound 70, N-((4-fluorophenyl)(pyridin-2-yl)methyl)-4-methyl-1-(2-(2-(trifluoromethyl)phenoxy)ethyl) piperidine-4-carboxamide] | 0.1 to 1 | 0.1 to 1 | > 30 | 0.1 to 1 |
| CC1(C(=O)NC(c2ccc(F)cc2)c2ccccn2)CCN(CCOc2ccccc2F)CC1 (stereo not shown) [Compound 71, 1-(2-(2-fluorophenoxy)ethyl)-N-((4-fluorophenyl)(pyridin-2-yl)methyl)-4-methylpiperidine-4-carboxamide] | 0.1 to 1 | < 0.1 | < 0.1 | > 30 |
| CN(CC1CCN(CCOc2ccccc2C(F)(F)F)CC1)C(c1ccc(Cl)cc1)c1ccccn1 (stereo not shown) [Compound 73] | < 0.1 | > 30 | > 30 | < 0.1 |
| CN(CC1CCN(CCOc2ccccc2)CC1)C(c1ccc(F)cc1)c1ccccn1 (stereo not shown) [Compound 74, 1-(4-fluorophenyl)-N-methyl-N-((1-(2-phenoxyethyl)piperidin-4-yl)methyl)-1-(pyridin-2-yl)methanamine] | 0.1 to 1 | < 0.1 | > 30 | 0.1 to 1 |
| CN(CC1CCN(CCOc2ccccc2F)CC1)C(c1ccc(F)cc1)c1ccccn1 (stereo not shown) [Compound 75, N-((1-(2-(2-fluorophenoxy)ethyl)piperidin-4-yl)methyl)-1-(4-fluorophenyl)-N-methyl-1-(pyridin-2-yl)methanamine] | 0.1 to 1 | < 0.1 | > 30 | 0.1 to 1 |
| COc1cccc(C(c2ccccn2)N(C)CC2CCN(CCOc3ccccc3)CC2)c1 (stereo not shown) [Compound 76, 1-(3-methoxyphenyl)-N-methyl-N-((1-(2-phenoxyethyl)piperidin-4-yl)methyl)-1-(pyridin-2-yl)methanamine] | 1 to 10 | < 0.1 | > 30 | 10 to 30 |
| COc1cccc(C(c2ccccn2)N(C)CC2CCN(CCOc3ccccc3F)CC2)c1 (stereo not shown) [Compound 77, N-((1-(2-(2-fluorophenoxy)ethyl)piperidin-4-yl)methyl)-1-(3-methoxyphenyl)-N-methyl-1-(pyridin-2-yl)methanamine] | 0.1 to 1 | < 0.1 | > 30 | 1 to 10 |
| Fc1ccc(C(NCC2CCN(CCOc3ccccc3)CC2)c2ccccn2)cc1 (stereo not shown) [Compound 78, 1-(4-fluorophenyl)-N-((1-(2-phenoxyethyl)piperidin-4-yl)methyl)-1-(pyridin-2-yl)methanamine] | 1 to 10 | 0.1 to 1 | > 30 | 1 to 10 |

The remaining lines, values ahead:

| IC50 (human D2R/β-arrestin [1]) [µM] | EC50 (human D2R/β-arrestin [2]) [µM] | EC50 (human D2R/β-arrestin [3]) [µM] | IC50 (human D2R/β-arrestin [4]) [µM] | Structure (SMILES) |
| --- | --- | --- | --- | --- |
| 10 to 30 | 1 to 10 | > 30 | > 30 | O=C(NC(c1ccccn1)c1ccccc1C(F)(F)F)C1CCN(CCOc2ccccc2)CC1 (stereo not shown) [Compound 33, 1-(2-phenoxyethyl)-N-(pyridin-2-yl(2-(trifluoromethyl)phenyl)methyl) piperidine-4-carboxamide] |
| 1 to 10 | 0.1 to 1 | > 30 | > 30 | COc1ccc(C(NC(=O)C2CCN(CCOc3ccccc3)CC2)c2ccccn2)cc1 (stereo not shown) [Compound 34] |
| 10 to 30 | > 30 | > 30 | > 30 | COc1ccccc1C(NC(=O)C1CCN(CCOc2ccccc2)CC1)c1ccccn1 (stereo not shown) [Compound 36, N((2-methoxyphenyl)(pyridin-2-yl)methyl)-1-(2-phenoxyethyl) piperidine-4-carboxamide] |
| 1 to 10 | 1 to 10 | > 30 | > 30 | CC(C)C(NC(=O)C1CCN(CCOc2ccccc2)CC1)c1ccccn1 (stereo not shown) [Compound 38, N-(2-methyl-1-(pyridin-2-yl)propyl)-1-(2-phenoxyethyl)piperidine-4-carboxamide] |
| 1 to 10 | 1 to 10 | > 30 | > 30 | COc1ccccc1C(NC(=O)C1CCN(CCOc2ccccc2)CC1)c1ccc(Cl)cc1 (stereo not shown) [Compound 43] |
| 1 to 10 | > 30 | > 30 | 10 to 30 | COc1ccc(C(NC(=O)C2CCN(CCOc3ccccc3)CC2)c2ccc(Cl)cc2)cc1 (stereo not shown) [Compound 44] |
| 1 to 10 | > 30 | > 30 | 0.1 to 1 | O=C(NC(c1ccc(F)cc1)c1ccc(F)cc1)C1CCN(CCOc2ccccc2)CC1 [Compound 47, N-(bis(4-fluorophenyl)methyl)-1-(2-phenoxyethyl)piperidine-4-carboxamide] |
| 1 to 10 | 1 to 10 | > 30 | > 30 | O=C(NC(c1ccccc1F)c1ccccc1F)C1CCN(CCOc2ccccc2)CC1 [Compound 48, N-(bis(2-fluorophenyl)methyl)-1-(2-phenoxyethyl)piperidine-4-carboxamide] |
| 0.1 to 1 | 1 to 10 | > 30 | 1 to 10 | O=C(NC(c1ccc(F)cc1)c1ccccc1F)C1CCN(CCOc2ccccc2)CC1 (stereo not shown) [Compound 49, N-((2-fluorophenyl)(4-fluorophenyl)methyl)-1-(2-phenoxyethyl)piperidine-4-carboxamide] |
| 1 to 10 | 0.1 to 1 | > 30 | > 30 | COc1cccc(C(NC(=O)C2CCN(CCOc3ccccc3)CC2)c2ccccc2F)c1 (stereo not shown) [Compound 50] |
| 0.1 to 1 | > 30 | > 30 | 0.1 to 1 | O=C(NC(c1ccc(F)cc1)c1ccccn1)C1CCN(CCOc2c(F)cccc2F)CC1 (stereo not shown) [Compound 56, 1-(2-(2,6-difluorophenoxy)ethyl)-N-((4-fluorophenyl)(pyridin-2-yl)methyl) piperidine-4-carboxamide] |
| 1 to 10 | > 30 | > 30 | 0.1 to 1 | O=C(NC(c1ccc(Cl)cc1)c1ccccn1)C1CCN(CCCOc2ccccc2)CC1 (stereo not shown) [Compound 62, N-((4-chlorophenyl)(pyridin-2-yl)methyl)-1-(3-phenoxypropyl)piperidine-4-carboxamide] |
| 0.1 to 1 | > 30 | > 30 | < 0.1 | O=C(NC(c1ccc(Cl)cc1)c1ccccn1)C1CCN(CCOc2c(F)cccc2F)CC1 (stereo not shown) [Compound 67, N-((4-chlorophenyl)(pyridin-2-yl)methyl)-1-(2-(2,6-difluorophenoxy)ethyl)piperidine-4-carboxamide] |
| < 0.1 | > 30 | > 30 | < 0.1 | O=C(NC(c1ccc(Cl)cc1)c1ccccn1)C1CCN(CCOc2ccccc2OC(F)(F)F)CC1 (stereo not shown) [Compound 68, N-((4-chlorophenyl)(pyridin-2-yl)methyl)-1-(2-(2-(trifluoromethoxy)phenoxy)ethyl) piperidine-4-carboxamide] |
